Legend:
[1] = target: T1, Lactobacillus johnsonii lactate dehydrogenase LjLDH, SEQ ID NO: 59, N-terminal 6xHis/HRV 3C tag (SEQ ID NO: 250) (Lactobacillus johnsonii, UniProt A0A7D9N8I3); experiment: Apparent steady-state kinetics of L-lactate oxidation with DCIP as electron acceptor; assay type: biochemical; details: L-lactate 0.125 to 64 mM, DCIP 120 μM, 11 mM PBS pH 7.4, 30° C.
T1 sequence (A0A7D9N8I3 1-412): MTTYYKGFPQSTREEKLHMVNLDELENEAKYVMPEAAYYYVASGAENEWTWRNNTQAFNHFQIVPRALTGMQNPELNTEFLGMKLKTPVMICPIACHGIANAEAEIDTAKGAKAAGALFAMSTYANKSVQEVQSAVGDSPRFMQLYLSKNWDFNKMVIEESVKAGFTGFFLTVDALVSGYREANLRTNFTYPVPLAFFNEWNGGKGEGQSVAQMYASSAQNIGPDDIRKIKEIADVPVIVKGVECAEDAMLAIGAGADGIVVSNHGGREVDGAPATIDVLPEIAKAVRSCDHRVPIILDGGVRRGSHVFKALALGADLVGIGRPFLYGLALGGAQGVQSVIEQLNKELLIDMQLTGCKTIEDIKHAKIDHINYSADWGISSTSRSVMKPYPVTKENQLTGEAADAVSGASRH

[2] = target: T2, Pediococcus acidilactici lactate dehydrogenase PaLDH (PaLCTO), native form, SEQ ID NO: 2 (Pediococcus acidilactici, UniProt E0NE46); details: apparent; L-lactate 4 to 500 mM; DCIP 120 μM; 11 mM PBS pH 7.4, 30° C.; per monomeric mass
T2 sequence (E0NE46 1-369): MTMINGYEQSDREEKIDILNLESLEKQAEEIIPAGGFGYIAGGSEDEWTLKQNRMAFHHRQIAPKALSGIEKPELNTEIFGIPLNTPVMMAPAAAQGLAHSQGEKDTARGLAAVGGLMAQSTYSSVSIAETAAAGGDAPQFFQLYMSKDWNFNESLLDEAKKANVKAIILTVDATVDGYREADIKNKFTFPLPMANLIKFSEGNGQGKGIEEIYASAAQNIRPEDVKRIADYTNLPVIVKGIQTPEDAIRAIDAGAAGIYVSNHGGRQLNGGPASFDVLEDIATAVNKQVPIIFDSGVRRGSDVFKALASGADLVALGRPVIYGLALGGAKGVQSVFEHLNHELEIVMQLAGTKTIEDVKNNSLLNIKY

[3] = target: T3, Lactobacillus helsingborgensis lactate dehydrogenase LhLDH, SEQ ID NO: 13, N-terminal 6xHis/HRV 3C tag (SEQ ID NO: 250) (Lactobacillus helsingborgensis, UniProt A0A0F4LW09); experiment: Apparent steady-state kinetics of L-lactate oxidation with DCIP as electron acceptor; assay type: biochemical; details: L-lactate 0.125 to 64 mM, DCIP 120 μM, 11 mM PBS pH 7.4, 30° C.
T3 sequence (A0A0F4LW09 1-409): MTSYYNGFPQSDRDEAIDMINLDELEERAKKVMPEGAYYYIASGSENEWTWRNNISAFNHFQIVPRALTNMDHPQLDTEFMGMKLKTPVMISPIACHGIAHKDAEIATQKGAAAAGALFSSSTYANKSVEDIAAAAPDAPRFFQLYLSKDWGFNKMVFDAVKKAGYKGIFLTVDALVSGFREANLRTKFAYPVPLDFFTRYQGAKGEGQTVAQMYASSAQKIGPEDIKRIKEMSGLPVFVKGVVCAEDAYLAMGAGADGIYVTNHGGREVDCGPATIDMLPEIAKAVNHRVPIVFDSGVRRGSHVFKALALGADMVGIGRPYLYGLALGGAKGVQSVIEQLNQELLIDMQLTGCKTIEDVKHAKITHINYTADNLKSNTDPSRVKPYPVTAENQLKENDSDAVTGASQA

[4] = target: T4, Gilliamella bombicola lactate dehydrogenase GbLDH, SEQ ID NO: 73, N-terminal 6xHis/HRV 3C tag (SEQ ID NO: 250) (Gilliamella bombicola, UniProt A0A1C4CJ33); experiment: as above; assay type: biochemical; details: L-lactate 0.125 to 64 mM, DCIP 120 μM, 11 mM PBS pH 7.4, 30° C.
T4 sequence (A0A1C4CJ33 1-365): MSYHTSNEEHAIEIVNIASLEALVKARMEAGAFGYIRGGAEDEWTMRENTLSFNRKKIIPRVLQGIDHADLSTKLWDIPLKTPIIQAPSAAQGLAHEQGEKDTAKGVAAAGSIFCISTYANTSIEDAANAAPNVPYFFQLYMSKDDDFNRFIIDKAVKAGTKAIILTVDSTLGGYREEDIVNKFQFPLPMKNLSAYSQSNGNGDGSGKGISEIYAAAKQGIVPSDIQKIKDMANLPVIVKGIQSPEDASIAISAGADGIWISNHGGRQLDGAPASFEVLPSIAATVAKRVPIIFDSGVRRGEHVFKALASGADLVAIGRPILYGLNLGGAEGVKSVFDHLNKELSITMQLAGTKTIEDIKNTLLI

[5] = system: Shigella sp. FC1655 lactate dehydrogenase SsLDH, SEQ ID NO: 74, predicted signal peptide removed, N-terminal 6xHis/HRV 3C tag (SEQ ID NO: 250); details: apparent, L-lactate 0.125 to 64 mM, DCIP 120 μM, 11 mM PBS pH 7.4, 30° C.
[6] = system: C[C@H](O)C(=O)O; experiment: purified protein, by the assay type; details: other: apparent, L-lactate 0.125 to 64 mM, DCIP 120 μM, 11 mM PBS pH 7.4, 30° C.

| Compound | Km [1] [mM] | kcat ([1]; per monomeric mass) [s⁻¹] | kcat [2] [s⁻¹] | Km [3] [mM] | kcat ([3]; per monomeric mass) [s⁻¹] | Km [4] [mM] | kcat ([4]; per monomeric mass) [s⁻¹] | Km [5] [mM] | kcat ([5]; per monomeric mass) [s⁻¹] | Km [6] [mM] | kcat [6] [s⁻¹] | kcat/Km [6] [M⁻¹ s⁻¹] |
| --- | --- | --- | --- | --- | --- | --- | --- | --- | --- | --- | --- | --- |
| C[C@H](O)C(=O)O [L-lactate] | 1.35 ± 0.18 | 47.2 ± 2.0 | 61.8 ± 8.5 | 0.52 ± 0.09 | 102 ± 8 | 16.9 ± 2.5 | 207 ± 29 | 5.67 ± 1.24 | 107 ± 10 | – | – | – |
| Enterococcus avium lactate dehydrogenase EaLDH, SEQ ID NO: 155, N-terminal 6xHis/HRV 3C tag (SEQ ID NO: 250) (Enterococcus avium ATCC 14025) | – | – | – | – | – | – | – | – | – | 21.6 ± 2.2 | 94 ± 7.8 | 4350 |

— patent US20250250606A1, “BIOELECTROCHEMICAL DETERMINATION OF LACTATE” (DIRECTSENS GMBH, priority 2022, published 2025)
